Source: patent publication US20020061839A1, “Serine peptidase modulators” (priority 1998, published 2002)
“Also recorded” adds a separate entry of the source.

Columns and labels:
Prolyl oligopeptidase = biological target: T1, Prolyl oligopeptidase (Homo sapiens, UniProt P48147); test: Inhibition of prolyl oligopeptidase (PO), Z-Gly-Pro-AMC substrate; format: biochemical; conditions: PO from human platelets, 20 min at 37° C.
T1 construct: Prolyl oligopeptidase was purified from human platelets; from tissue; host or cells: human platelets
T1 sequence (P48147 1-710): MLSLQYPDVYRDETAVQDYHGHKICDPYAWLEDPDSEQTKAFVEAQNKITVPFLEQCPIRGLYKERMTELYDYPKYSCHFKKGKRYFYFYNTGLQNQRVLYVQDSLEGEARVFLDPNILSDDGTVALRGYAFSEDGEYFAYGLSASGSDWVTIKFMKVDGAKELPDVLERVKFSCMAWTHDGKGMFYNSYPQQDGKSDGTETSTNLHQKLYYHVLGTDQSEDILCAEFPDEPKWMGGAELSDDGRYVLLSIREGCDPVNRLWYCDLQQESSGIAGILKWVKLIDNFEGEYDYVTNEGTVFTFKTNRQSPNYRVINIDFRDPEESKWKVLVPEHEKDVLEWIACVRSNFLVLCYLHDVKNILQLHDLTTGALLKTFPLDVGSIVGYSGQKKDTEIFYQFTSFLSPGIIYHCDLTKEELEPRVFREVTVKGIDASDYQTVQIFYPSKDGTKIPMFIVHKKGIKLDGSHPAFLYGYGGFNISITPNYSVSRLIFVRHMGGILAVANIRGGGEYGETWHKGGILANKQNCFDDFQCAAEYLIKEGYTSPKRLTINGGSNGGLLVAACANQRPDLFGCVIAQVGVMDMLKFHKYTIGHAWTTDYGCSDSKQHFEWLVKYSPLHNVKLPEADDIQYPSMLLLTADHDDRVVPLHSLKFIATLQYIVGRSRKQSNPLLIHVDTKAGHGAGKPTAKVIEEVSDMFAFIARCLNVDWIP
Protocol: Prolyl oligopeptidase was purified from human platelets and the enzyme activity was measured using Z—Gly—Pro—AMC (4.4 mM) as the substrate in a K-phosphate buffer 100 mM, pH 7.5 containing 1 EM EDTA, 1 mM dithiothreitol and 1 mM NaN3. The incubation was carried out during 20 min at 37° C. The reaction was stopped by the addition of 5 volumes 1.5 M acetic acid. Fluorescence was measured at 370 and 440 nm as excitation and emission wavelengths respectively. The inhibitors were added at concentrations varying between 1 μM and 1 mM.

[1] = Systemic and local toxicity in rats; format: in vivo; conditions: for acute systemic or local toxicity: daily subcutaneous injection of 50 mg/kg (initial dose 100 mg/kg)
Protocol: They received standard diet and water ad lib. […] Blood was sampled from the central ear artery. Rats and mice were injected subcutaneously or intraperitoneally.

[2] = system: human peripheral blood mononuclear cells (PBMC); test: In vitro cytotoxicity in PBMC, trypan blue exclusion; format: cell-based; conditions: freshly isolated mononuclear cells or phytohemagglutinin stimulated blasts, concentrations up to 100 μM
Protocol: Peripheral blood mononuclear cells were isolated from buffy coats (obtained from the blood transfusion center of Antwerp). After dilution (¼) in phosphate buffer saline (PBS), cells were layered onto Ficoll-Hypaque density gradient (Pharmacia, Uppsala, Sweden) and centrifuged at room temperature at 550×g during 20 min. The interfaces were collected and washed 3 times in RPMI-1640. Finally the cells were resuspended at 1×10^6 cells/mL in RPMI-1640 containing 10% heat-inactivated foetal calf serum, and antibiotics (penicillin/streptomycin) (Gibco). These freshly isolated cells were used immediately for inhibitor studies or first stimulated with phytohaemagglutinin (Murex diagnostics) at 1 μg/mL during 3 days at 37° C. in a 5% CO2 humidified incubator. Inhibitor (stock solution at −80° C. in phosphate buffer, diluted ex tempore in RPMI-1640) or vehicle alone was added to the cells (5×10^6/test) at different concentrations. After overnight incubation at 37° C., an aliquot was taken for cytotoxicity evaluation by 0.4% trypan blue exclusion. The remaining cells were washed 3 times in PBS and the final cell pellet was solubilised in 200 μL PBS containing 1% v/v Triton X-100 and 100 KIU/mL aprotinin (Bayer) and centrifuged during 10 min at 20000×g. Supernatants were used immediately for enzyme assay and protein determination by the Bradford micro-assay. Specific activities (U/g protein) are compared and the % inhibition is given toward control samples without inhibitor.

in vitro = conditions: human, plasma
[3] = Side effects in rabbits after intravenous injection; format: in vivo; conditions: single intravenous injection of 0.2 mg/kg
Protocol: […]. They received standard diet and water ad lib. […] Blood was sampled from the central ear artery. Rats and mice were injected subcutaneously or intraperitoneally.

[4] = Graft acceptance upon alloantigen challenge; format: in vivo, rats; conditions: monotherapy
Dipeptidyl peptidase II = conditions: DPP II semi-purified from rabbit kidney, pH 5.5, 20 minutes at 37° C.
Protocol: After incubation during 20 minutes at 37° C., the reaction was stopped by the addition of 10 fold excess sodium-acetate pH 3.6.

Work on `C[C@H](NC(=O)OCc1ccccc1)C(=O)Nc1ccc(OP(=O)(Oc2ccc(NC(=O)[C@H](C)NC(=O)OCc3ccccc3)cc2)C2CCCN2C(=O)[C@@H]2CCCN2C(=O)OCc2ccccc2)cc1` (mixture of isomers) [10j, Di[4-(N-benzyloxycarbonyl-(S)-alanylamino)phenyl]-1-(benzyloxycarbonyl-(S)-prolyl)pyrrolidine-2(R,S)-phosphonate] yielded a melting point of 200 to 203 °C and an IC50 (Prolyl oligopeptidase) greater than 500 µM.

With `O=C1CC[C@@H](C(=O)Nc2ccc(OP(=O)(Oc3ccc(NC(=O)[C@@H]4CCC(=O)N4)cc3)C3CCCN3C(=O)[C@@H]3CCCN3C(=O)OCc3ccccc3)cc2)N1` (mixture of isomers) [10k, Di[4-((S)-pyroglutamylamino)phenyl]-1-(benzyloxycarbonyl-(S)-prolyl)pyrrolidine-2(R,S)-phosphonate] the melting point was 170 °C (dec.) and the IC50 (Prolyl oligopeptidase) was 9 µM.

With `CC(=O)Nc1ccc(OP(=O)(Oc2ccc(NC(C)=O)cc2)C2CCCN2C(=O)[C@@H]2CCCN2)cc1.Cl` (mixture of isomers) [11e, Di(4-acetamidophenyl) 1-((S)-prolyl)pyrrolidine-2(R,S)-phosphonate hydrochloride] the “acute systemic or local toxicity” value ([1]; rats, hydrochloride) was “without any sign of acute systemic or local toxicity; also recorded: no acute systemic or local toxicity” and the cytotoxicity ([2]; hydrochloride) was “no cytotoxicity; also recorded: did not show cytotoxicity”.

With `CCOC(=O)CNC(=O)c1ccc(OP(=O)(Oc2ccc(C(=O)NCC(=O)OCC)cc2)C2CCCN2C(=O)[C@@H]2CCCN2)cc1` (mixture of isomers) [11n, Di{4-[(ethoxycarbonyl)methylaminocarbonyl]phenyl}1-((S)-prolyl)pyrrolidine-2(R,S)-phosphonate] the “acute systemic or local toxicity” value ([1]; rats) was “without any sign of acute systemic or local toxicity; also recorded: no acute systemic or local toxicity”, the half-life at 1 mM (in vitro) was 0.583 ± 0.0333 h and the cytotoxicity [2] was “did not show cytotoxicity; also recorded: no cytotoxicity”. The side effects [3] was “without side effects”.

For `O=C([C@@H]1CCCN1)N1CCCC1P(=O)(Oc1ccccc1)Oc1ccccc1` (mixture of isomers) [compound 5, diphenyl 1-(S)-prolyl-pyrrolidine-2-(R,S)-phosphonate], the “systemic toxicity and local ulcerations” value ([1]; monotherapy) was “occasionally also caused systemic toxicity and more often local ulcerations”, the systemic toxicity ([1]; rats, intravenously) was “adequate inhibition could not be reached without severe systemic toxicity” and the half-life at 1 mM (in vitro) was 4.17 ± 0.167 h. For the same compound, the graft acceptance [4] was “significantly prolonged graft acceptance”.

With `Cl.O=C([C@@H]1CCCN1)N1CCC[C@H]1P(=O)(Oc1ccccc1)Oc1ccccc1` [11a (R), Diphenyl 1-((S)-prolyl)pyrrolidine-2(R)-phosphonate hydrochloride] the half-life at 1 mM (in vitro) was 5 ± 0.5 h and the cytotoxicity [2] was “no satisfactory inhibition of DPP IV activity could be reached without cytotoxic effects”.

Work on `CC(NC(=O)[C@@H](N)Cc1ccccc1)P(=O)(Oc1ccccc1)Oc1ccccc1` (stereo partly drawn) [Phe-AlaP(OPh)2, Diphenyl 1(R,S)-L-phenylalanyl aminoethane phosphonate] yielded an IC50 (Dipeptidyl peptidase II) of 800 µM.

For `CC(NC(=O)[C@@H]1CCCN1)P(=O)(Oc1ccccc1)Oc1ccccc1` (stereo partly drawn) [Pro-AlaP(OPh)2, diphenyl 1(R,S)-L-prolyl aminoethane phosphonate], the IC50 (Dipeptidyl peptidase II) was 1500 µM.
